Data on three compounds can be found in article PMC7367283, “A PIP2 substitute mediates voltage sensor-pore coupling in KCNQ activation” (Communications Biology, 2020).

One test concerns the target IKs (KCNQ1 + KCNE1) (Homo sapiens, UniProt P51787). In words: IKs co-expressed with CiVSP (PIP2 depletion), two-electrode voltage clamp in Xenopus oocytes. Format: cell-based. As to conditions: 100 µM chromanol 293B, bath application after 10 µM CP1. The text has this: We co-expressed KCNQ1 with the voltage-dependent lipid phosphatase CiVSP[44] in Xenopus oocytes and recorded KCNQ1 currents using two-electrode voltage clamp with consecutive depolarizing voltage pulses. […] To more directly test CP1 effects, we applied CP1 to the intracellular side of the inside-out membrane patch that expressed IKs channels.
Background: In two-electrode clamp one electrode senses voltage and the other passes current.

Another test relates to KCNQ2/KCNQ3 channel. More on the design: method as in PMID 22303005. The settings on record: cited from earlier work.

For `CCS(=O)(=O)N(C)[C@H]1c2cc(C#N)ccc2OC(C)(C)[C@@H]1O` (racemic) [Chromanol 293B, reference compound], the “effect on CP1-rescued IKs currents” value on IKs (KCNQ1 + KCNE1) is recorded as “inhibited”.
On to `O=P(O)(O)O[C@@H]1[C@@H](O)[C@H](O)[C@H](O)[C@H](O)[C@H]1OP(=O)(O)O` [I(4,5)P2], for which the “effect on channel activity” value in the test on KCNQ2/KCNQ3 channel is recorded as “no effect on channel activity”.
Turning to `O=P(O)(O)O[C@@H]1[C@H](O)[C@H](O)[C@@H](OP(=O)(O)O)[C@H](OP(=O)(O)O)[C@H]1O` [I(1,4,5)P3], the “effect on channel activity” value in the test with KCNQ2/KCNQ3 channel is recorded as “no effect on channel activity”.
